Measurements published in ChEMBL document CHEMBL1201862, “PubChem BioAssay data set” (2004).
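Dose response: 5 concentrations. Exposure: 48 h. Format: 96-well plates. Endpoint: linear interpolation; highest concentration if not reached. The concentration for 50% growth inhibition is given as GI50.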 Activity calls are given as the source filed them. No stated cut-off is given here; in the data, active = GI50 up to about 1.1 µM and inactive = higher.

Legend:
Assay in all cases: growth of human tumour cells (NCI), 48 h
[1] = system: M14
[2] = system: NCI-H226
[3] = system: LOX IMVI
[4] = system: PC-3
[5] = system: 786-0
[6] = system: HCT-15
[7] = system: SK-MEL-2
[8] = system: OVCAR-5
[9] = system: K562
[10] = system: A549
[11] = system: NCI-H522
[12] = system: U-251
[13] = system: TK-10
[14] = system: MDA-N
[15] = system: OVCAR-8
[16] = system: SF-268
[17] = system: RXF 393
[18] = system: OVCAR-3
[19] = system: BT-549
[20] = system: HCC 2998
[21] = system: HOP-62
[22] = system: DU-145
[23] = system: MOLT-4
[24] = system: SF-539
[25] = system: IGROV-1
[26] = system: SNB-19
[27] = system: CCRF-CEM
[28] = system: UO-31
[29] = system: COLO 205
[30] = system: NCI-H23
[31] = system: SK-MEL-28
[32] = system: KM12
[33] = system: NCI/ADR-RES
[34] = system: T47D
[35] = system: RPMI-8226
[36] = system: ACHN
[37] = system: MCF7
[38] = system: UACC-257
[39] = system: EKVX
[40] = system: MDA-MB-435
[41] = system: A498
[42] = system: SW-620
[43] = system: SR
[44] = system: HT-29
[45] = system: SN12C
[46] = system: NCI-H460
[47] = system: CAKI-1
[48] = system: HL-60
[49] = system: HOP-92
[50] = system: SK-OV-3
[51] = system: Hs-578T
[52] = system: HCT-116
[53] = system: SK-MEL-5
[54] = system: SF-295
[55] = system: SNB-75
[56] = system: MDA-MB-231
[57] = system: UACC-62
[58] = system: OVCAR-4
[59] = system: Malme-3M

Measured: GI50

c1ccc2/c3[nH]/c(c2c1)=N\c1ccc(cc1)-c1nc2ccc(cc2o1)/N=c1/[nH]/c(c2ccccc12)=N/c1ccc2nc(oc2c1)-c1ccc(cc1)\N=3
3.1 µM: [6]
inactive: [1] 53.8 µM | [2] 68.2 µM | [3] 29.4 µM | [4] 29.9 µM | [5] 31 µM | [7] 38.8 µM | [8] > 100 µM | [9] 15.8 µM | [10] 26.8 µM | [11] 43.8 µM | [12] 20.1 µM | [13] > 100 µM | [14] 27.4 µM | [15] > 100 µM | [16] 15.3 µM | [17] 43.2 µM | [18] 26.5 µM | [19] > 100 µM | [20] 17.1 µM | [21] 62.4 µM | [22] 23.2 µM | [23] 14.9 µM | [24] 77.1 µM | [25] 47.2 µM | [26] 26.1 µM | [27] 2.26 µM | [28] 15.9 µM | [29] 11.6 µM | [30] 43.4 µM | [31] 24.5 µM | [32] 35.1 µM | [33] 20.5 µM | [34] 25.2 µM | [35] 18.9 µM | [36] 16.6 µM | [37] 37.8 µM | [38] > 100 µM | [39] 45.6 µM | [40] 27.6 µM | [41] 33.5 µM | [42] 26.5 µM | [43] 20.3 µM | [44] 33.4 µM | [45] 20.9 µM | [46] 7.38 µM | [47] 35.4 µM | [49] 37.3 µM | [50] 72.8 µM | [51] > 100 µM | [52] 32.8 µM | [53] 12.4 µM | [54] 31 µM | [55] > 100 µM | [56] 27 µM | [57] 51.4 µM
active: [48] 0.422 µM

COc1cc2cc(C(=O)N3CC(CCl)c4ccc([N+](C)(C)Cc5ccc([N+](=O)[O-])cc5)cc43)[nH]c2c(OC)c1OC (stereo not drawn)
active: [11] 0.552 µM | [43] 0.363 µM
inactive: [1] 5.68 µM | [2] 2.82 µM | [58] 3.09 µM | [4] 2.09 µM | [5] 2.32 µM | [7] 2.05 µM | [8] 3.87 µM | [9] 1.92 µM | [10] 1.8 µM | [59] 2.48 µM | [12] 2.71 µM | [13] 1.86 µM | [14] 3.53 µM | [15] 1.75 µM | [16] 3.39 µM | [17] 1.36 µM | [18] 1.96 µM | [19] 5.74 µM | [20] 1.41 µM | [21] 4.92 µM | [22] 3.05 µM | [23] 2.1 µM | [24] 1.78 µM | [25] 1.97 µM | [26] 8.53 µM | [27] 2.01 µM | [28] 2.1 µM | [29] 3.25 µM | [30] 1.77 µM | [31] 9.29 µM | [32] 2.77 µM | [33] 1.71 µM | [34] 3.48 µM | [35] 2.01 µM | [36] 2.29 µM | [37] 2.14 µM | [38] 1.83 µM | [39] 5.69 µM | [40] 4.54 µM | [41] 1.76 µM | [42] 1.5 µM | [44] 2.03 µM | [45] 4.55 µM | [46] 1.52 µM | [47] 2.05 µM | [48] 2.04 µM | [49] 2.52 µM | [50] 2.28 µM | [51] 9.62 µM | [52] 1.83 µM | [53] 1.71 µM | [54] 2.58 µM | [55] 3.3 µM | [56] 7.55 µM | [57] 2.13 µM
3.2 µM: [6]

Cc1cc(C)c(P2C(=C(O[Si](C(C)C)(C(C)C)C(C)C)C(C)(C)C)C2(c2ccccc2)c2ccccc2)c(C)c1 (stereo not drawn)
inactive: [1] > 100 µM | [2] > 100 µM | [58] > 100 µM | [3] > 100 µM | [4] 57.9 µM | [5] > 100 µM | [7] > 100 µM | [8] > 100 µM | [9] 67 µM | [10] 61.8 µM | [11] 62.1 µM | [12] > 100 µM | [13] > 100 µM | [14] > 100 µM | [15] > 100 µM | [16] > 100 µM | [17] > 100 µM | [18] > 100 µM | [19] > 100 µM | [20] > 100 µM | [21] > 100 µM | [22] > 100 µM | [23] > 100 µM | [24] > 100 µM | [25] > 100 µM | [26] > 100 µM | [27] > 100 µM | [28] 76.9 µM | [29] > 100 µM | [30] > 100 µM | [31] > 100 µM | [32] 94 µM | [33] > 100 µM | [34] > 100 µM | [35] 62.8 µM | [36] > 100 µM | [37] > 100 µM | [38] > 100 µM | [39] > 100 µM | [40] > 100 µM | [41] > 100 µM | [42] > 100 µM | [43] 86.3 µM | [44] > 100 µM | [45] > 100 µM | [46] > 100 µM | [47] > 100 µM | [48] > 100 µM | [49] > 100 µM | [50] > 100 µM | [51] > 100 µM | [52] 52.8 µM | [53] > 100 µM | [54] > 100 µM | [55] 88.1 µM | [56] > 100 µM | [57] > 100 µM
> 100 µM: [6]
